The record followed here is US8536196B2, “Substituted 1,3-dioxanes useful as PPAR modulators” (Evolva SA, priority 2007, dated 2013).

The target of one assay is T1, Gal4-PPARgammaLBD (Homo sapiens, UniProt P37231).
T1 construct: expressed in transfected cells; host or cells: mouse embryonic fibroblasts (MEFs) or ME3 cells
T1 sequence (P37231 204-505): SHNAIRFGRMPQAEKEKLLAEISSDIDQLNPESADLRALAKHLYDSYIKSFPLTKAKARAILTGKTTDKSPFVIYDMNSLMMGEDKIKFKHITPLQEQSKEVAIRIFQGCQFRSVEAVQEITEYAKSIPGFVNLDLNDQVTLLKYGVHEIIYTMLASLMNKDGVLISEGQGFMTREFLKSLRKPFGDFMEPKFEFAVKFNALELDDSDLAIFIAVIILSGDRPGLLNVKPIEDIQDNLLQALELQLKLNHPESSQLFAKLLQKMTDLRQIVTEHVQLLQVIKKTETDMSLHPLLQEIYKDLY
Kind of assay: PPARgamma transactivation assay (Gal4-PPARgammaLBD, UASx4-TK-luc reporter). Type of assay: cell-based. The following applies: 10 μM. The source says: This is an example of a transactivation assay for determining PPAR gamma modulating activity.
The UASx-4-TK-luc reporter construct (where UAS refers to “upstream activator sequence”) contains four Gal4-responsive elements. The plasmid Gal4-PPARgammaLBD encodes a Gal4-DBD-PPARgamma-LBD fusion protein (i.e. the DNA-binding domain, DBD, of Gal4 fused to the ligand-binding domain, LBD, of PPARgamma) capable of transactivating the UASx-4-TK-luc reporter plasmid by binding to the UAS. The CMV-beta-galactosidase plasmid (where CMV is cytomegalovirus) is used for normalization of experimental values.
The cells were replated, typically in 24 well plates, so that at the time of transfection the cells are 50-70% confluent.
Briefly, per well in a 24 well plate, UASx4TKIuc (0.2 μg) Gal4-PPARgammaLBD (or pM-hPPARgamma-LBD; 0.1 μg) and CMV-beta-galactosidase (0.05 μg) in 30 μL DMEM (free of serum and antibiotics) is mixed with 30 μL DMEM (free of serum and antibiotics) containing 1 μL metafectenein. The mixture is incubated at room temperature for 20 min to allow formation of nucleic acid-lipid complexes and then approximately 60 μL is added to each well containing the 50-60% confluent cells. […] Cells were harvested after 12-24 hours and luciferase and beta-galactosidase activities were measured according to standard protocols.
“−” means that testing was not performed.

Another assay deals with MEFs / 3T3-L1. Kind of assay: Adipocyte differentiation induction assay (Oil Red O staining). Type of assay: cell-based, mouse. On the procedure: This example describes an assay for determining adipocyte differention. Compounds are tested to see whether they induce adipocyte differentiation and also to see whether they inhibit adipocyte differention.
MEFs were grown in AmnioMax basal medium (Gibco) supplemented with 7.5% Amniomax supplement C-100 (Gibco), 7.5% Fetal Bovine Serum (FBS), 2 mM Glutamine, 62.5 μg/ml penicillin and 100 μg/ml Streptomycin (growth medium). At confluence, MEFs were induced to differentiation in growth medium with the addition of 1 μM dexamethasone (Sigma) 0.5 mM isobutylmethylxanthine (Sigma), 5 μg/ml insulin (Sigma) and 10 μM test compound dissolved in DMSO or DMSO alone. Medium was subsequently renewed every 48 hrs with growth media supplemented with 5 μg/ml Insulin and ligand or DMSO.
Briefly, to test compounds as inducers of adipocyte differentiation, 3T3-L1 are grown to confluence in DMEM with 10% Calf serum (CS), typically in 24 well dishes. At 2 days post confluence (day 0), cells are induced to differentiate with DMEM supplemented with 10% fetal bovine serum (FBS), 1 μM dexamethasone and the test compound (01, 1 and 10 μM). BRL49653 (1.0 μM dissolved in 100% DMSO) is used as a positive control. After 48 h, the cells are re-fed with DMEM containing 10% FBS supplemented with the test compound or the positive control. From day 4, cells are grown in DMEM with 10% FBS and are changed every second day until day 8. At day 8, cells are stained with Oil Red O as described below.
Cells cultured as described above are used for Oil Red staining. Dishes are washed in PBS and cells were fixed in 3.7% paraformaldehyde for 1 h and stained with oil red O as described in (Hansen et al 1999). Oil red O solution stock solution is prepared by dissolving 0.5 g of Oil Red O (Sigma) in 100 mL of isopropanol. Oil re 0 working solution is prepared by diluting a stock solution with water (6:4) followed by filtration.
Table II summarizes results obtained with different analogs of DPD (SN1), “0” representing similar results to DPD, “−1” representing even less adipocyte differentiation, “+1” representing more adipocyte differentiation (both relative to DPD) and “−” meaning not assayed.

For the next assay, the system named is 3T3-L1 preadipocytes. Kind of assay: Glucose uptake assay. Type of assay: cell-based. How it is done:
This example illustrates that compounds identified as PPARgamma agonists also produce a physiological effect in cellular assays, expected of a PPARgamma agonist, namely an effect on glucose uptake. Glucose uptake assays are important to establish the suitability of a compound for the treatment of insulin resistance.
Briefly, 3T3-L1 preadipocytes are grown in 12-well plates until confluence. Cells are washed with serum-free DMEM and incubated with 1 ml of the same medium at 37° C. for 1-2 h. The cells are then washed with Krebs-Ringer-Hepes (KRP) buffer and then incubated with 0.9 ml KRP buffer at 37° C. for 30 min. Insulin is added to the cells at 0, 0.3, 1 and 3 nM final concentrations and incubated for 15 min at 37° C. Glucose uptake is initiated by the addition of 0.1 ml of Krebs-Ringer phosphate (KRP) buffer supplemented with 10 mM [^3H] 2-deoxy-D-glucose (1 mCi/l). After 10 min incubation at 37° C., the medium is aspirated and plates washed with ice-cold PBS to terminate the induced glucose uptake. The cells are lyzed with 0.5 ml 1% Triton X-100 and radioactivity levels determined using a scintillation counter. The results are depicted in FIG. 7.

In the next assay the target is T2, mPPARalphaLBD (Mus musculus, UniProt P23204).
T2 construct: expressed in transfected cells
T2 sequence (P23204 239-466 limits assumed): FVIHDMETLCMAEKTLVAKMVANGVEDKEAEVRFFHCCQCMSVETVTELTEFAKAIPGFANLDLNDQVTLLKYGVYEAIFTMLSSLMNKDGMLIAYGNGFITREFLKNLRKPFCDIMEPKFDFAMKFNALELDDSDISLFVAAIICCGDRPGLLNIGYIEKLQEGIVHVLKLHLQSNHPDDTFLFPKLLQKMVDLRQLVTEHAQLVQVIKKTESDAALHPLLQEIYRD
Kind of assay: PPARalpha transactivation assay. Type of assay: cell-based. On the procedure:
This example describes a transactivation assay for determining PPARalpha modulating activity.
DPD and other ligands are tested for their ability to transactivate PPARalpha essentially as described in Example 22.

`O=C(O)CC/C=C\CC1COC(c2ccccc2Cl)OC1c1ccccc1O` (racemic) [SN1, (Z)-6-(-2-(2-chlorophenyl)-4-(2-hydroxyphenyl)-1,3-dioxan-5-yl)hex-4-enoic acid]: on Gal4-PPARgammaLBD, the “PPAR transactivation higher than with DMSO alone” value was “about 10 fold”. In the assay on MEFs / 3T3-L1, the “red staining (Oil Red O) in the induction assay” value is on record as “very little red staining”. The “glucose uptake compared with Avandia” value with 3T3-L1 preadipocytes is recorded as “same level of glucose uptake at 10 mM as Avandia at 1 mM”. Moreover, at mPPARalphaLBD, the “increase in PPARalpha transactivation” value is recorded as “no transactivation”.
